Experimental data as given in the kinase profiling compilation of Christmann-Franck et al. (2016).

Experiments:
Assay in all cases: KINOMEscan competition binding
Conditions in all cases: compound 10.0 µM
ADCK3 (human) = ADCK3 (human) (UniProt Q8NI60)
AKT1 (human) = AKT1 (human) (UniProt P31749)
AKT2 (human) = AKT2 (human) (UniProt P31751)
CDC2L2 (human) = CDC2L2 (human) (UniProt Q9UQ88)
CDK11B (human) = CDK11B (human) (UniProt P21127)
DAPK3 (human) = DAPK3 (human) (UniProt O43293)
DCLK1 (human) = DCLK1 (human) (UniProt O15075)
EPHB2 (human) = EPHB2 (human) (UniProt P29323)
EPHB3 (human) = EPHB3 (human) (UniProt P54753)
ERBB4 (human) = ERBB4 (human) (UniProt Q15303)
FES (human) = FES (human) (UniProt P07332)
IKBKE (human) = IKBKE (human) (UniProt Q14164)
[1] = system: KIT (human), P10721 [D816V]
LIMK2 (human) = LIMK2 (human) (UniProt P53671)
LTK (human) = LTK (human) (UniProt P29376)
MAP2K6 (human) = MAP2K6 (human) (UniProt P52564)
MAP3K3 (human) = MAP3K3 (human) (UniProt Q99759)
MAPK1 (human) = MAPK1 (human) (UniProt P28482)
MAPK11 (human) = MAPK11 (human) (UniProt Q15759)
MAPK15 (human) = MAPK15 (human) (UniProt Q8TD08)
MAPK6 (human) = MAPK6 (human) (UniProt Q16659)
MAPKAPK5 (human) = MAPKAPK5 (human) (UniProt Q8IW41)
MARK3 (human) = MARK3 (human) (UniProt P27448)
NEK7 (human) = NEK7 (human) (UniProt Q8TDX7)
NLK (human) = NLK (human) (UniProt Q9UBE8)
PDPK1 (human) = PDPK1 (human) (UniProt O15530)
PIP4K2B (human) = PIP4K2B (human) (UniProt P78356)
PIP5K1A (human) = PIP5K1A (human) (UniProt Q99755)
PLK3 (human) = PLK3 (human) (UniProt Q9H4B4)
PTK2 (human) = PTK2 (human) (UniProt Q05397)
PTK6 (human) = PTK6 (human) (UniProt Q13882)
RPS6KA4 KD1 (human) = RPS6KA4 KD1 (human) (UniProt O75676)
SGK110 (human) = SGK110 (human) (UniProt P0C264)
STK10 (human) = STK10 (human) (UniProt O94804)
STK16 (human) = STK16 (human) (UniProt O75716)
STK4 (human) = STK4 (human) (UniProt Q13043)
TAOK3 (human) = TAOK3 (human) (UniProt Q9H2K8)
TESK1 (human) = TESK1 (human) (UniProt Q15569)
TGFBR2 (human) = TGFBR2 (human) (UniProt P37173)
TSSK1B (human) = TSSK1B (human) (UniProt Q9BXA7)

MAP3K3 (human), sequence (Q99759 whole entry, looked up): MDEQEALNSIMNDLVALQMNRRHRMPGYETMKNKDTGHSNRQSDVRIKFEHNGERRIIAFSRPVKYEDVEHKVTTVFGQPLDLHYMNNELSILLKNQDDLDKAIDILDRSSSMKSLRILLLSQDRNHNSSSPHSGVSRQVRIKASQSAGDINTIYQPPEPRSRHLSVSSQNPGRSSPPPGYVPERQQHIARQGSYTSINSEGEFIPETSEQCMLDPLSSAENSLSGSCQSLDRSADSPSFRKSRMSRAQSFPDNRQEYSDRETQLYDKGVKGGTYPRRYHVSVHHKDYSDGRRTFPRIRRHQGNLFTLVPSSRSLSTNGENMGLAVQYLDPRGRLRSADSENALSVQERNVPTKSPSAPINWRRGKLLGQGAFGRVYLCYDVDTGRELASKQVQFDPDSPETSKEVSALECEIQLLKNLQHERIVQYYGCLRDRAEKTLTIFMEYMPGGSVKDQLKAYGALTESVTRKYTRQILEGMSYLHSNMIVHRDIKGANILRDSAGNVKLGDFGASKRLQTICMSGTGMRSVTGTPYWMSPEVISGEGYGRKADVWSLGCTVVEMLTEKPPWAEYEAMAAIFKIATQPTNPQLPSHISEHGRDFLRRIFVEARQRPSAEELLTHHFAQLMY
PIP4K2B (human), sequence (P78356 whole entry, looked up): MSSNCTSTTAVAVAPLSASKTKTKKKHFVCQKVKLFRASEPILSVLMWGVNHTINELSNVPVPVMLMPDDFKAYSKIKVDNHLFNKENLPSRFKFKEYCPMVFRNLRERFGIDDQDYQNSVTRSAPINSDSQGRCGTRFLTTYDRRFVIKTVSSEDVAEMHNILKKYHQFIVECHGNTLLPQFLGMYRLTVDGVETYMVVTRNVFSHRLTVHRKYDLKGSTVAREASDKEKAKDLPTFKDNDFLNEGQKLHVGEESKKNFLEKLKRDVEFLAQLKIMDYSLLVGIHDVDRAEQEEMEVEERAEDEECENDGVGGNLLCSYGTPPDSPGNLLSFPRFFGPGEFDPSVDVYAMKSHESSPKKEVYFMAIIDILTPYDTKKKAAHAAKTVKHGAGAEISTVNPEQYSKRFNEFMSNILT
TAOK3 (human), sequence (Q9H2K8 whole entry, looked up): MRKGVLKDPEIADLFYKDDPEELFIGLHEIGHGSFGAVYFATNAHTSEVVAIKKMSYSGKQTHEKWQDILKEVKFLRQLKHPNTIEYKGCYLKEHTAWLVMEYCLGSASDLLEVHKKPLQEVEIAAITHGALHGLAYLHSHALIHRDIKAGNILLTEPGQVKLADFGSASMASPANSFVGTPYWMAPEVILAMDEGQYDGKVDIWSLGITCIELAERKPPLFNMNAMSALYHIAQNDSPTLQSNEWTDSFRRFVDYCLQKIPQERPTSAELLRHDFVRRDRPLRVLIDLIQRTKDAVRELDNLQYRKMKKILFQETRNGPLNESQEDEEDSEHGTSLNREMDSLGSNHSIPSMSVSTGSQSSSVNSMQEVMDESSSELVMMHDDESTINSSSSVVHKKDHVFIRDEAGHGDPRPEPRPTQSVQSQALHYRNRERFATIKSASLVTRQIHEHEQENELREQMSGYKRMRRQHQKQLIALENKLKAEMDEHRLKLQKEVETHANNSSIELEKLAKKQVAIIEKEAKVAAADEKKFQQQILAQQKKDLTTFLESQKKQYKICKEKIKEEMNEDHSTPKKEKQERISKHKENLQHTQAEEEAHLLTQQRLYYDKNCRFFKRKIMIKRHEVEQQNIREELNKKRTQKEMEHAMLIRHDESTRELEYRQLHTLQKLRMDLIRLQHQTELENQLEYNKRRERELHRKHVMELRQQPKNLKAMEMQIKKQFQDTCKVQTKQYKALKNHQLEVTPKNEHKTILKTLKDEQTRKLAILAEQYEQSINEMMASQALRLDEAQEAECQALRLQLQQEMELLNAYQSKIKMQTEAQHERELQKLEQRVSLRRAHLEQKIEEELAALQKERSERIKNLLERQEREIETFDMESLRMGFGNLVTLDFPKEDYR
CDK11B (human), sequence (P21127 whole entry, looked up): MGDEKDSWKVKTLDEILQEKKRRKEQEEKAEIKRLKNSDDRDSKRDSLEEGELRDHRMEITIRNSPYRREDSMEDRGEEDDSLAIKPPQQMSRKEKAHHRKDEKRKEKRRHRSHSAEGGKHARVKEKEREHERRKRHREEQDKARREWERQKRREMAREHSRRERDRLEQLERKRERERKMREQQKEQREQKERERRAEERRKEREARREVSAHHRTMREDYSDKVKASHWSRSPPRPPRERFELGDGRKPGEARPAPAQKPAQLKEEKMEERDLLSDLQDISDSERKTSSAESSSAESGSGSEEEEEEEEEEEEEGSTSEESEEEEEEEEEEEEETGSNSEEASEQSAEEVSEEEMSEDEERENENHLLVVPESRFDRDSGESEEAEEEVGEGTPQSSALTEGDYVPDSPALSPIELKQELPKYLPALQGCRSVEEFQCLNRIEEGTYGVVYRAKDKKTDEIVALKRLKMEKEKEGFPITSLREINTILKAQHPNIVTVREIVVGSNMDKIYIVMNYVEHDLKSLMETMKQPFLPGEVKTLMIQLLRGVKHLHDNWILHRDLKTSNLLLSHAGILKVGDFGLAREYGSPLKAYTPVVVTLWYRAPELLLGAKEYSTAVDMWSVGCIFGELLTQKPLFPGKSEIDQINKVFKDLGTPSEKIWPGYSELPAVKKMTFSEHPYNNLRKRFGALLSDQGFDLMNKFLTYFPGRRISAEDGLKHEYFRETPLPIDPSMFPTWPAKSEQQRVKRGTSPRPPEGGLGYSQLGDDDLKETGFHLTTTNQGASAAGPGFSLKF
ERBB4 (human), sequence (Q15303 whole entry, looked up): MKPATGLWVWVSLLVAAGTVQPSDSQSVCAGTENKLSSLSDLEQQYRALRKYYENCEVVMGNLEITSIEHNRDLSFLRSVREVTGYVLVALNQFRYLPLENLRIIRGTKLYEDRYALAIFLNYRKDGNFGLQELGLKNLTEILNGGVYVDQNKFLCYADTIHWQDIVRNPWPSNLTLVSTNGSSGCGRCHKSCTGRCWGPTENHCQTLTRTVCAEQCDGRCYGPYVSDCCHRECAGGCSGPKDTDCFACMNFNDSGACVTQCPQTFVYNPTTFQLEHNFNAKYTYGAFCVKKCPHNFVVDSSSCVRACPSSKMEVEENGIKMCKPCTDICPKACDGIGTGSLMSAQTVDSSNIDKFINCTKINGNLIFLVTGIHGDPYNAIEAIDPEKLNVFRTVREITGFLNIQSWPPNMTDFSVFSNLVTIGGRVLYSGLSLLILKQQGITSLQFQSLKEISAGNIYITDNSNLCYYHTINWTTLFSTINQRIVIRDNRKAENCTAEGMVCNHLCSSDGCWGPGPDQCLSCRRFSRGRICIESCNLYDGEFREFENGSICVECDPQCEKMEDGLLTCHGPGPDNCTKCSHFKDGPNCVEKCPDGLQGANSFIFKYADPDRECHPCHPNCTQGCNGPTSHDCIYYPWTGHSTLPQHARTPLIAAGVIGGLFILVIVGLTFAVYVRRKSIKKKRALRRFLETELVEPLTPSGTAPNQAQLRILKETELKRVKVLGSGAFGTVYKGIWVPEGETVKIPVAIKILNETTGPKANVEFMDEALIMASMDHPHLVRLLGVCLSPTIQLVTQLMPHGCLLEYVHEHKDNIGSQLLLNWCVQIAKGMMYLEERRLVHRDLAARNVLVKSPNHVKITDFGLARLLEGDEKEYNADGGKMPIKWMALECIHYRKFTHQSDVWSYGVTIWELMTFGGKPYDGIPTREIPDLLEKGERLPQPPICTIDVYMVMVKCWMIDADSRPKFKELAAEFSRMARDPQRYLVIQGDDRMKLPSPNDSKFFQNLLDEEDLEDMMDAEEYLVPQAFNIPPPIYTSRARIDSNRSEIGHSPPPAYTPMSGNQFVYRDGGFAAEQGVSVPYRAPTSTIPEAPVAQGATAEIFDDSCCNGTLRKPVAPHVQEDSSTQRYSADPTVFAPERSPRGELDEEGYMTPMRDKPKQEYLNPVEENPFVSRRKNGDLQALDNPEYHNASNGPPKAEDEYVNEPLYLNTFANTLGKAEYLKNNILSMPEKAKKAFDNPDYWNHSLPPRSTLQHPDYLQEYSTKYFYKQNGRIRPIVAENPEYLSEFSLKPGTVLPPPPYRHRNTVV
EPHB2 (human), sequence (P29323 whole entry, looked up): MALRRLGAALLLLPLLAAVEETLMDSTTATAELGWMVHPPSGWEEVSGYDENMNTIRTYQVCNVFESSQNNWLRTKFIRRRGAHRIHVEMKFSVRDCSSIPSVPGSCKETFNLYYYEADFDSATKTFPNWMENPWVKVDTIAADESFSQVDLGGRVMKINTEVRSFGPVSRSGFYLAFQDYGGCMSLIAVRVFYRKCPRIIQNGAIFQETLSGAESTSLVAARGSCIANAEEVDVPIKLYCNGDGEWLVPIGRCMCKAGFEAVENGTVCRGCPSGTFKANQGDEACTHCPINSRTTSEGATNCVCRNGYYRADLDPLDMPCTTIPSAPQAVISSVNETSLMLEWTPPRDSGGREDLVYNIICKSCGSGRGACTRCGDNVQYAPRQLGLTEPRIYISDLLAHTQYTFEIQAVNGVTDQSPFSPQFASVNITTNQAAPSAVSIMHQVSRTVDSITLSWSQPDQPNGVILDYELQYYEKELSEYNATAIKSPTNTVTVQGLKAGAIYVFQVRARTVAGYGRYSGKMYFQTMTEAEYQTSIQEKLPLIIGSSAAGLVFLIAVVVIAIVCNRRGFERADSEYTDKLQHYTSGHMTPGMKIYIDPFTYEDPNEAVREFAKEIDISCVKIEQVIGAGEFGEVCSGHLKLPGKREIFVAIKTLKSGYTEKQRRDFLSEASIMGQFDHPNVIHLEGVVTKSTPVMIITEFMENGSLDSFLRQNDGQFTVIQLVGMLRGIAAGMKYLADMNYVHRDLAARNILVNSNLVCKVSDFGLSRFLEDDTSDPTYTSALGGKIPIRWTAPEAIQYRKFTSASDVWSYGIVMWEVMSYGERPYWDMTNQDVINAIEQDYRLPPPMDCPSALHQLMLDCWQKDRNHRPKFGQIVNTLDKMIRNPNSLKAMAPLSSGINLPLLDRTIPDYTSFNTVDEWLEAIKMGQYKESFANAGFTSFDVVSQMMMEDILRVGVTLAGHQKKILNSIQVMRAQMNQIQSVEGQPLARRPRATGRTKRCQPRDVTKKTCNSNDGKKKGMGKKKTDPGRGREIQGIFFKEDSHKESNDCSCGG

| Structure (SMILES) | kinase still bound, per cent of control (ADCK3 (human)) | kinase still bound, per cent of control (AKT1 (human)) | kinase still bound, per cent of control (AKT2 (human)) | kinase still bound, per cent of control (CDC2L2 (human)) | kinase still bound, per cent of control (CDK11B (human)) | kinase still bound, per cent of control (DAPK3 (human)) | kinase still bound, per cent of control (DCLK1 (human)) | kinase still bound, per cent of control (EPHB2 (human)) | kinase still bound, per cent of control (EPHB3 (human)) | kinase still bound, per cent of control (ERBB4 (human)) | kinase still bound, per cent of control (FES (human)) | kinase still bound, per cent of control (IKBKE (human)) | kinase still bound, per cent of control [1] | kinase still bound, per cent of control (LIMK2 (human)) | kinase still bound, per cent of control (LTK (human)) | kinase still bound, per cent of control (MAP2K6 (human)) | kinase still bound, per cent of control (MAP3K3 (human)) | kinase still bound, per cent of control (MAPK1 (human)) | kinase still bound, per cent of control (MAPK11 (human)) | kinase still bound, per cent of control (MAPK15 (human)) | also measured |
| --- | --- | --- | --- | --- | --- | --- | --- | --- | --- | --- | --- | --- | --- | --- | --- | --- | --- | --- | --- | --- | --- |
| C=CC(=O)Nc1cccc(Nc2nc(N[C@H]3CC[C@H](N(C)C)CC3)nc3c2ncn3C(C)C)c1 | 87% | 93% | 84% | 98% | 100% | 23% | 30% | 87% | 83% | 76% | 85% | 95% | 10% | 100% | 88% | 100% | 2.7% | 93% | 89% | 75% | kinase still bound, per cent of control (MAPK6 (human)): 100%; kinase still bound, per cent of control (MAPKAPK5 (human)): 87%; kinase still bound, per cent of control (MARK3 (human)): 81%; kinase still bound, per cent of control (NEK7 (human)): 76%; kinase still bound, per cent of control (NLK (human)): 96%; kinase still bound, per cent of control (PDPK1 (human)): 100%; kinase still bound, per cent of control (PIP4K2B (human)): 54%; kinase still bound, per cent of control (PIP5K1A (human)): 36%; kinase still bound, per cent of control (PLK3 (human)): 100%; kinase still bound, per cent of control (PTK2 (human)): 26%; kinase still bound, per cent of control (PTK6 (human)): 100%; kinase still bound, per cent of control (RPS6KA4 KD1 (human)): 59%; kinase still bound, per cent of control (SGK110 (human)): 88%; kinase still bound, per cent of control (STK10 (human)): 72%; kinase still bound, per cent of control (STK16 (human)): 72%; kinase still bound, per cent of control (STK4 (human)): 78%; kinase still bound, per cent of control (TAOK3 (human)): 28%; kinase still bound, per cent of control (TESK1 (human)): 93%; kinase still bound, per cent of control (TGFBR2 (human)): 100%; kinase still bound, per cent of control (TSSK1B (human)): 97% |
| N#Cc1c(NC(=O)c2cccc3ccccc23)sc2c1CCCC2 | 100% | 94% | 100% | 100% | 95% | 88% | 100% | 75% | 98% | 100% | 100% | 100% | 97% | 100% | 90% | 100% | 96% | 89% | 100% | 64% | kinase still bound, per cent of control (MAPK6 (human)): 86%; kinase still bound, per cent of control (MAPKAPK5 (human)): 100%; kinase still bound, per cent of control (MARK3 (human)): 89%; kinase still bound, per cent of control (NEK7 (human)): 84%; kinase still bound, per cent of control (NLK (human)): 65%; kinase still bound, per cent of control (PDPK1 (human)): 81%; kinase still bound, per cent of control (PIP4K2B (human)): 100%; kinase still bound, per cent of control (PIP5K1A (human)): 100%; kinase still bound, per cent of control (PLK3 (human)): 100%; kinase still bound, per cent of control (PTK2 (human)): 91%; kinase still bound, per cent of control (PTK6 (human)): 46%; kinase still bound, per cent of control (RPS6KA4 KD1 (human)): 91%; kinase still bound, per cent of control (SGK110 (human)): 91%; kinase still bound, per cent of control (STK10 (human)): 67%; kinase still bound, per cent of control (STK16 (human)): 89%; kinase still bound, per cent of control (STK4 (human)): 94%; kinase still bound, per cent of control (TAOK3 (human)): 87%; kinase still bound, per cent of control (TESK1 (human)): 83%; kinase still bound, per cent of control (TGFBR2 (human)): 100%; kinase still bound, per cent of control (TSSK1B (human)): 100% |
